{"source": "patent US5830888A", "about": "“Macrocyclic retroviral protease inhibitors” (Monsanto Company, priority 1995, dated 1998)"}
{"target": "T1, HIV protease (Human immunodeficiency virus type 1 group M subtype B, UniProt P04585)", "T1 construct": "HIV protease is diluted in the assay buffer to a final enzyme concentration of 12.3 nanomolar, based on a molecular weight of 10,780", "assay": "HIV protease enzyme assay (fluorescence, substrate 2-aminobenzoyl-lle-Nle-Phe(p-NO2)-Gin-ArgNH2)", "format": "biochemical", "settings": "10 microM; HIV protease 12.3 nanomolar; substrate 80 μM; pH 6.4", "experimental": "(§1) The compounds of the present invention are effective HIV protease inhibitors. […] The calculated IC50 (inhibiting concentration 50%, i.e., the concentration at which the inhibitor compound reduces enzyme activity by 50%) values are shown in Table 1. The enzyme method is described below. The substrate is 2-aminobenzoyl-lle-Nle-Phe(p-NO2)-Gin-ArgNH2. The positive control is MVT-101 [Miller, M. et al, Science, 246, 1149 (1989)]. The assay conditions are as follows:\n(§2) Assay buffer: 20 mM sodium phosphate, pH 6.4\n(§3) The above described substrate is dissolved in DMSO, then diluted 10 fold in assay buffer. Final substrate concentration in the assay is 80 μM. HIV protease is diluted in the assay buffer to a final enzyme concentration of 12.3 nanomolar, based on a molecular weight of 10,780.\n(§4) The final concentration of DMSO is 14% and the final concentration of glycerol is 18%. The test compound is dissolved in DMSO and diluted in DMSO to 10×the test concentration; 10 μL of the enzyme preparation is added, the materials mixed and then the mixture is incubated at ambient temperature for 15 minutes. The enzyme reaction is initiated by the addition of 40 μL of substrate. The increase in fluorescence is monitored at 4 time points (0, 8, 16 and 24 minutes) at ambient temperature. Each assay is carried out in duplicate wells.", "units": {"inhibition at 10 µM": "%"}}
{"smiles": "CC(C)CCN1C[C@@H](O)[C@H](Cc2ccccc2)NC(=O)CCSCCCCCNC1=O", "note": "[Compound 5]", "inhibition at 10 µM": 20}
{"smiles": "CC(C)CCN1C[C@@H](O)[C@H](Cc2ccccc2)NC(=O)[C@@H](NC(=O)OCc2ccccc2)CC(=O)NCCCNC1=O", "note": "[Compound 20, Carbamic Acid, [5-Hydroxy-3-(3-Methylbutyl)-2,8,11-Trioxo-5-(Phenylmethyl)-1,3,7,12-Tetraazacyclopentadec-9-YL]-, Phenylmethylester, (98-Trans)-]", "inhibition at 10 µM": 16}
{"smiles": "CC(C)CCN1C[C@@H](O)[C@H](Cc2ccccc2)NC(=O)[C@@H](NC(=O)OCc2ccccc2)CSCCCCCCC1=O", "note": "[Compound 10]", "inhibition at 10 µM": 47}
{"smiles": "CC(C)CCN1C[C@@H](O)[C@H](Cc2ccccc2)NC(=O)CCS(=O)(=O)CCCCCNC1=O", "note": "[Compound 17, 1-Thia-5,9,11-Triazacyclohexadecane, 7-Hydroxy-9-(3-Methylbutyl)-4,10-Dioxo-6-(Phenylmethyl)-, 1,1-Dioxide, Cis-]", "inhibition at 10 µM": 21}
{"target": "T1, HIV protease", "assay": "HIV protease enzyme assay (fluorescence, substrate 2-aminobenzoyl-lle-Nle-Phe(p-NO2)-Gin-ArgNH2)", "format": "biochemical", "settings": "HIV protease 12.3 nanomolar; substrate 80 μM; pH 6.4; ambient temperature; read-out: IC50 (inhibiting concentration 50%)", "experimental": "as §1, §2, §3, §4", "units": {"IC50": "nM"}}
{"smiles": "CC(C)CCN1C[C@@H](O)[C@H](Cc2ccccc2)NC(=O)[C@@H](NC(=O)c2ccc3ccccc3n2)CSCCCCCNC1=O", "note": "[Compound 9]", "IC50": 510}
{"smiles": "CC(C)CCN1C[C@@H](O)[C@H](Cc2ccccc2)NC(=O)[C@@H](NC(=O)OCc2ccccc2)CSCCCCC(C)(C)NC1=O", "note": "[Compound 6]", "IC50": 220}
{"smiles": "CC(C)CCN1C[C@@H](O)[C@H](Cc2ccccc2)NC(=O)[C@@H](NC(=O)OCc2ccccc2)CSCCCCCCNC1=O", "note": "[Compound 3]", "IC50": 1730}
{"smiles": "CC(C)CCN1C[C@@H](O)[C@H](Cc2ccccc2)NC(=O)[C@@H](NC(=O)OCc2ccccc2)CSCCCCCNC1=O", "note": "[Compound 2]", "IC50": 570}
{"smiles": "CC(C)CCN1C[C@@H](O)[C@H](Cc2ccccc2)NC(=O)[C@@H](NC(=O)OCc2ccccc2)CSCCCCNC1=O", "note": "[Compound 1]", "IC50": 340}
{"smiles": "CC(C)CCN1C[C@@H](O)[C@H](Cc2ccccc2)NC(=O)[C@@H](NC(=O)OCc2ccccc2)CSCCCC(C)(C)NC1=O", "note": "[Compound 8]", "IC50": 140}
{"smiles": "CC(C)CCN1C[C@@H](O)[C@H](Cc2ccccc2)NC(=O)[C@@H](NC(=O)OCc2ccccc2)C(C)(C)SCCCCCNC1=O", "note": "[Compound 7]", "IC50": 1260}
{"smiles": "CC(=O)N[C@H]1CSCCCCCNC(=O)N(CCC(C)C)C[C@@H](O)[C@H](Cc2ccccc2)NC1=O", "note": "[Compound 4]", "IC50": 1600}
